Measurements taken from patent US8492374B2, “Azaazulene compounds” (Industrial Technology Research Institute, priority 2009, dated 2013).

What was measured:
KDR kinase = molecular target: T1, KDR kinase (Homo sapiens, UniProt P35968); experiment: KDR kinase DELFIA assay (HTScan VEGFR-2 Kinase Assay Kit); type: biochemical; settings: 20 uM ATP; for inhibition at 0.1 µM: 0.1 uM compound, read-out: Kinases inhibitory activities against KDR kinase, 0.1 uM; for inhibition at 1 µM: 1 uM compound, read-out: Kinases inhibitory activities against KDR kinase, 1 uM
T1 construct: human VEGFR-2 (Val789-Val1356); GST (N); purchased Cell Signaling Technology HTScan VEGFR-2 Kinase Assay Kit; host or cells: baculovirus expression system
Experimental: (§1) Azaazulene Compounds of this invention were treated for their efficacy in inhibiting activities of FLT-3, c-KIT and KDR kinases by biochemical DELFIA (Dissociation Enhanced Lanthanide FIA) assays according to the procedure described below. The assays were conducted by, Division of Cell Engineering, Biomedical Engineering Research Laboratories, Industrial Technology Research Institute, Bldg. 53, 195, sec. 4, Chung Hsing Rd. Chutung, Hsinchu, Taiwan 310, R.O.C.
The KDR assay was conducted following the protocol described in Protocol for HTScan™ VEGFR-2 Kinase Assay Kit (Cell Signaling Technology™).

[1] = tested on: MV4-11 (FLT3-ITD) cell line; experiment: In vitro cell activity assay (MTT cell viability, 72 hours); type: cell-based; settings: Homo sapiens, 72 hours at 37° C., 10,000 cells per well, read-out: IC50 against MV4-11
In short: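 Compound serial dilutions applied to MV4-11 (FLT3-ITD) cells, 10,000 per well, for 72 hours at 37° C. Viability by MTT, formazan dissolved in DMSO, absorbance at 600 nm; IC50 by nonlinear regression as concentration halving absorbance versus untreated cells.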

FLT-3 kinase = molecular target: T2, FLT-3 kinase (Homo sapiens, UniProt P36888); experiment: FLT-3 kinase DELFIA assay (HTScan FLT-3 Kinase Assay Kit); type: biochemical; settings: 20 uM ATP; for inhibition at 0.1 µM: 0.1 uM compound; for inhibition at 1 µM: 1 uM compound
T2 construct: human FLT-3 (Arg571-Ser993); GST (N); purchased Cell Signaling Technology HTScan FLT-3 Kinase Assay Kit; host or cells: baculovirus expression system
T2 sequence (P36888 571-993): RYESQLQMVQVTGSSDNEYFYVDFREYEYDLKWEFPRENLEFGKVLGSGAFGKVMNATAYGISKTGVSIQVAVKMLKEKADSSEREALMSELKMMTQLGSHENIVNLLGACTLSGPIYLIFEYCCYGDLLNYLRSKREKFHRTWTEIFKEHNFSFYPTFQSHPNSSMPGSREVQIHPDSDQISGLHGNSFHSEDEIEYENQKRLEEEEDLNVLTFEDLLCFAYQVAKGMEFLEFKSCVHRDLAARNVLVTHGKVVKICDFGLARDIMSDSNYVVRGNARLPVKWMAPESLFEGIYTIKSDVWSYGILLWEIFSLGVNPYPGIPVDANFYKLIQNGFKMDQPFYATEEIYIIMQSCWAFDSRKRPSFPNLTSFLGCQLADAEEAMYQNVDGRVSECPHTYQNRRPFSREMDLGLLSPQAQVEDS

c-KIT kinase = molecular target: T3, c-KIT kinase (Homo sapiens, UniProt P10721); experiment: c-KIT kinase DELFIA assay (HTScan c-KIT Kinase Assay Kit); type: biochemical; settings: 20 uM ATP; for inhibition at 0.1 µM: 0.1 uM compound; for inhibition at 1 µM: 1 uM compound
T3 construct: human c-KIT (Thr544-Val976); GST (N); purchased Cell Signaling Technology HTScan c-KIT Kinase Assay Kit; host or cells: baculovirus expression system
Experimental: as §1
The c-KIT assay was conducted following the protocol described in Protocol for HTScan® c-KIT Kinase Assay Kit (Cell Signaling Technology®).

T1 sequence (P35968 789-1356): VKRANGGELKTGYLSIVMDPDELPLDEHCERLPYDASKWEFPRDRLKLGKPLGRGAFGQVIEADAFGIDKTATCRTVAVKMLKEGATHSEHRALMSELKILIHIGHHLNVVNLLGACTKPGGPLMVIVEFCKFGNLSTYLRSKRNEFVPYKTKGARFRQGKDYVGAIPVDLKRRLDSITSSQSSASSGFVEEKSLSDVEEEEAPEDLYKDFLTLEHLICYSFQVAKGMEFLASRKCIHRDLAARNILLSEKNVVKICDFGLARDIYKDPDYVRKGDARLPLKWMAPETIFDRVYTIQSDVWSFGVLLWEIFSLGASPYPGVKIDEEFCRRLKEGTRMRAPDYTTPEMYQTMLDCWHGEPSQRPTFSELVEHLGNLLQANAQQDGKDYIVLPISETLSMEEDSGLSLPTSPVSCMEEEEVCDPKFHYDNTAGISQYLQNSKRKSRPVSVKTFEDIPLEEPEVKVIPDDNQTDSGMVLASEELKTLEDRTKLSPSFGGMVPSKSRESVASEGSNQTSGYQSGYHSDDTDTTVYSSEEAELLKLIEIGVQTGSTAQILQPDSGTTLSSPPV
T3 sequence (P10721 544-976): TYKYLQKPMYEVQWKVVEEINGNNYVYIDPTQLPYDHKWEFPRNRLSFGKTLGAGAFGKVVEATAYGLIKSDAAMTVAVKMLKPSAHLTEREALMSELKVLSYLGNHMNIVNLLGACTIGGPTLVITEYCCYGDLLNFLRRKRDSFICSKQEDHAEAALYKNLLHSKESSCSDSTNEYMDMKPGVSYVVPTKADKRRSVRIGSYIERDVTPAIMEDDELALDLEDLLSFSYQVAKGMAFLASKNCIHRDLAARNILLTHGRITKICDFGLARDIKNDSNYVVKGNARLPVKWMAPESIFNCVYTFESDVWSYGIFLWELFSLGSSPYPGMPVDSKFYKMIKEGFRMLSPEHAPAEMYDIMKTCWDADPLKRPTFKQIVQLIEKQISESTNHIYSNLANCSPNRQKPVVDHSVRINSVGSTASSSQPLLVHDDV

Structure (SMILES)	inhibition at 0.1 µM (KDR kinase) [%]	inhibition at 1 µM (KDR kinase) [%]	IC50 [1] [µM]	inhibition at 0.1 µM (FLT-3 kinase) [%]	inhibition at 1 µM (FLT-3 kinase) [%]	inhibition at 0.1 µM (c-KIT kinase) [%]	inhibition at 1 µM (c-KIT kinase) [%]
O=c1[nH]c2cccccc-2c1-c1nc2cc(O)ccc2[nH]1 [Compound B8]	15.9	63.8	~0.5	9.8	68.5	42.2	75.5
O=c1[nH]c2cccccc-2c1-c1nc2cc([N+](=O)[O-])ccc2[nH]1 [Compound B5]	31.7	45.3	1.3	12.8	27.1	15.2	56.8
O=c1[nH]c2cccccc-2c1-c1nc2cc(F)ccc2[nH]1 [Compound B2]	78.3	94.5	1 to 5	18.9	59.9	6.4	57.9
O=c1[nH]c2cccccc-2c1-c1cn2ccccc2n1 [Compound B9]	0.5	13.2	1 to 5	5.8	19.1	16	24.4
Nc1ccc2[nH]c(-c3c4cccccc-4[nH]c3=O)nc2c1 [Compound B6]	29.7	63.3	0.916	12.8	45.1	32.6	62.6
O=c1[nH]c2cccccc-2c1-c1nc2cc(C(F)(F)F)ccc2[nH]1 [Compound B4]	14.4	17.8	1 to 5	13.7	37.1	5	37.6
CCN(CC)CCn1c2cccccc-2c(-c2nc3ccccc3[nH]2)c1=O [Compound B1]		3.7	1 to 5	8.4	10.4	31.2	41.1
O=C(O)c1ccc2[nH]c(-c3c4cccccc-4[nH]c3=O)nc2c1 [Compound B7]	20.2	46.1	> 5		8.7	34.8	57.3
